≈ marks a conversion by molar mass, not a printed value.
Experiments:
[1] = system: rifampicin-resistant M. tuberculosis strain (rRMP); experiment: microbe, parasite or virus in culture; assay type: cell-based, Mycobacterium tuberculosis; details: for MIC: Mycobacterium tuberculosis, read-out: MABA MIC vs. rRMP, rifampicin-resistant M. tuberculosis strain; for MIC / MABA MIC vs. rRMP: two values per compound; for MABA MIC vs. rRMP: rifampicin-resistant M. tuberculosis strain
[2] = system: isoniazide-resistant Mycobacterium tuberculosis strains (rINH); experiment: microbe, parasite or virus in culture; assay type: cell-based; details: for MIC: Mycobacterium tuberculosis, read-out: MABA MIC vs. rINH, isoniazide-resistant strain; for MIC / MABA MIC vs. rINH: two values per compound; for MABA MIC vs. rINH: isoniazide-resistant strain

Structure (SMILES) | MIC [1] | MABA MIC vs. rRMP [1] | MIC [2] | MABA MIC vs. rINH [2] | inhibitory activity against rifampin-resistant strain (in words) [1] | inhibitory activity against isoniazid-resistant strain (in words) [2]
COc1nc2ccc(Br)cc2cc1[C@@H](c1ccccc1)[C@@](O)(CCN(C)C)c1cccc2ccccc12 [Bedaquiline, reference compound] | 0.12 µM (≈ 0.0667 µg/mL) | 0.13 µM | 0.07 µM (≈ 0.0389 µg/mL) | 0.09 µM | – | –
COc1ncc(-c2ccccc2)cc1C(c1ccccc1)C(O)(CCN(C)C)c1cccc2ccccc12 (stereo not drawn) [Compound 9, 4-(dimethylamino)-1-(2-methoxy-5-phenylpyridin-3-yl)-2-(naphthalen-1-yl)-1-phenylbutan-2-ol] | 0.9 µM (≈ 0.452 µg/mL) | 0.91 µM | 0.47 µM (≈ 0.236 µg/mL) | 0.44 µM | – | –
COc1ncc(-c2ccc(Br)cc2)cc1C(c1ccccc1)C(O)(CCN(C)C)c1cccc2ccccc12 (stereo not drawn) [Compound 133, 1-(5-(4-bromophenyl)-2-methoxypyridin-3-yl)-4-(dimethylamino)-2-(naphthalen-1-yl)-1-phenylbutan-2-ol] | 0.24 µM (≈ 0.14 µg/mL) | 0.34 µM | 0.22 µM (≈ 0.128 µg/mL) | 0.12 µM | comparable to that of the marketed anti-TB drug, Bedaquiline | comparable to that of the marketed anti-TB drug, Bedaquiline
CO[C@H]1/C=C/O[C@@]2(C)Oc3c(C)c(O)c4c(O)c(c(/C=N/N5CCN(C)CC5)c(O)c4c3C2=O)NC(=O)/C(C)=C\C=C\[C@H](C)[C@H](O)[C@@H](C)[C@@H](O)[C@@H](C)[C@H](OC(C)=O)[C@@H]1C [rifampin, reference compound] | > 4 µM | – | < 0.016 µM | – | – | –
NNC(=O)c1ccncc1 [isoniazide, isoniazid, reference compound] | 0.83 µM (≈ 0.114 µg/mL) | 0.65 µM | > 8 µM | – | – | –
COc1ncc(-c2ccc(Cl)cc2)cc1C(c1ccccc1)C(O)(CCN(C)C)c1cccc2ccccc12 (stereo not drawn) [Compound 115, 1-(5-(4-chlorophenyl)-2-methoxypyridin-3-yl)-4-(dimethylamino)-2-(naphthalen-1-yl)-1-phenylbutan-2-ol] | 0.18 µM (≈ 0.0967 µg/mL) | – | 0.11 µM (≈ 0.0591 µg/mL) | 0.12 µM | comparable to that of the marketed anti-TB drug, Bedaquiline | comparable to that of the marketed anti-TB drug, Bedaquiline

— patent publication US9878982B2, “Pyridine derivatives and anti-mycobacterial use thereof” (priority 2014, dated 2018)
